# Experimental data: US20250082931A1, “Treating Gastric Cancer Using TTFields Combined with XELOX, FOLFOX or the Individual Constituents Thereof” (Novocure GmbH, priority 2019, published 2025)
# Assays:
# AGS cells [1] = assay: Clonogenic effect (colonies count); format: cell-based; details: for colonies count: 72 h
# Procedure: (§1) After 72 h of treatment the media and the cells were collected, and cytotoxicity was determined by cell counts. […] For the testing of the clonogenic effect, cells were seeded for colonies.
# (§2) After 6-14 days the colonies were fixed, stained and counted to determine clonogenic effect. The overall effect was calculated by multiplying the cytotoxic effect and the clonogenic effect.
# (§3) Clonogenic effect: The colonies from each well were counted using ImageJ software. Average and standard deviation of colony number of at least 5 wells from each treatment were calculated in excel software. The averages from these repeats was calculated to averages and standard errors and is presented as percent from control (no drug treatment) in XY graph of points with error bars using GraphPed software. Significant was determine by 2-way ANOVA followed Multiple comparison using GraphPed software.
# AGS cells [2] = assay: Apoptosis analysis by Annexin V / 7AAD staining; format: cell-based; details: for AnnV+ 7AAD+ cell fraction / AnnV+ 7AAD− cell fraction / AnnV− 7AAD+ cell fraction / AnnV− 7AAD− cell fraction: 72 h
# Procedure: (§4) After 72 h of treatment the media and the cells were collected, and cytotoxicity was determined by cell counts. Cells (including cells from the media) were stained for Annexin V and 7AAD for apoptosis analysis. For the testing of the clonogenic effect, cells were seeded for colonies.
# (§5) Cells were seeded on inovitro dishes and petri dishes 24 h before starting the experiments. Media containing the indicated concentration of each chemotherapy component alone or FOLFOX and control media was added to the cells and the dishes were connected to TTFields (as in SOP-BI-009) or grown in 37° C., 5% CO2 for 72 h. Each treatment included 8 repeats (8 dishes). The media was replaced every 24 h. At the end of the experiment the cells were collected, and cytotoxicity was determined by cell counts, small number of cells were seeded for colonies and the cells (including cells from the media) were stained for Annexin V and 7AAD for apoptosis analysis.
# (§6) Apoptotic effect: Average of cell fraction of each marker staining (Annexin V and 7AAD) of at least 5 dishes from each treatment was calculated in Excel software. The averages from these repeats was calculated to averages and is presented in stacked bar graph using GraphPed software.
# AGS cells [3] = assay: Cytotoxic effect by cell count after 72 h, with and without TTFields
# Procedure: (§7) During the treatment the media of all dishes was replaced every 24 h (“hours”).
# (§8) After 72 h of treatment the media and the cells were collected, and cytotoxicity was determined by cell counts.
# as §5
# (§9) A TTFields generator (Inovitro systems) was used to apply the treatment to the cells.
# (§10) Cytotoxic effect: Average and standard deviation of cell number of at least 5 dishes from each treatment was calculated in Excel software. The averages from these repeats was calculated to averages and standard error and is presented as percent from control (no drug treatment) in XY graph of points with error bars using GraphPed software. Significant was determine by 2-way ANOVA followed Multiple comparison using GraphPed software.
# KATO III cells [4] = assay: Overall effect (cytotoxic effect x clonogenic effect); details: low concentration
# Procedure: as §2
# Overall effect: Each colony number was multiply in the percent of cytotoxic effect of its dish and averages and standard deviations of each treatment were calculated in Excel software. […] Significant was determine by 2-way ANOVA followed Multiple comparison using GraphPed software.
# KATO III cells [5] = assay: Apoptosis analysis by Annexin V / 7AAD staining; format: cell-based; details: for AnnV+ 7AAD+ cell fraction / AnnV+ 7AAD− cell fraction / AnnV− 7AAD+ cell fraction / AnnV− 7AAD− cell fraction: 72 h
# Procedure: as §4, §5, §6
# KATO III cells [6] = assay: Cytotoxic effect by cell count after 72 h, with and without TTFields
# Procedure: as §7, §8, §5, §9, §10
# KATO III cells [7] = assay: Clonogenic effect (colonies count); details: for colonies count: 72 h;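 as to all read-outs here: after treatment, KATO III cells were reseeded and grown 6–14 days, then colonies were fixed, stained and counted, expressed as percent of untreated (no drug) control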
# Procedure: as §1, §2, §3
# [8] = 25 nM, + TTFields 150 kHz 1.0 V/cm
# [9] = 50 nM, + TTFields 150 kHz 1.0 V/cm
# [10] = 100 nM, + TTFields 150 kHz 1.0 V/cm
# [11] = 200 nM, + TTFields 150 kHz 1.0 V/cm
# [12] = 400 nM, + TTFields 150 kHz 1.0 V/cm
# [13] = FOLFOX experiment, 50 nM, + TTFields 150 kHz 1.0 V/cm
# [14] = FOLFOX experiment, 50 nM, no TTFields
# [15] = 25 nuM, + TTFields 150 kHz 1.0 V/cm
# [16] = 50 nM, + TTFields 150 kHz 1.6 V/cm
# [17] = 100 nM, + TTFields 150 kHz 1.6 V/cm
# [18] = 200 nM, + TTFields 150 kHz 1.6 V/cm
# [19] = 400 nM, + TTFields 150 kHz 1.6 V/cm
# [20] = FOLFOX experiment, 50 nM, + TTFields 150 kHz 1.6 V/cm
smiles,measurement,setting,value
O=C1[O][Pt]2([NH][C@@H]3CCCC[C@H]3[NH]2)[O]C1=O [Oxaliplatin],colonies count,AGS cells [1]; [8],67 % from control
same,colonies count,"AGS cells [1]; 25 nM, no TTFields",91 % from control
same,colonies count,AGS cells [1]; [9],70 % from control
same,colonies count,"AGS cells [1]; 50 nM, no TTFields",92 % from control
same,colonies count,AGS cells [1]; [10],61 % from control
same,colonies count,"AGS cells [1]; 100 nM, no TTFields",97 % from control
same,colonies count,AGS cells [1]; [11],43 % from control
same,colonies count,"AGS cells [1]; 200 nM, no TTFields",77 % from control
same,colonies count,AGS cells [1]; [12],18 % from control
same,colonies count,"AGS cells [1]; 400 nM, no TTFields",36 % from control
same,colonies count,AGS cells [1]; [13],64 % from control
same,colonies count,AGS cells [1]; [14],91 % from control
same,"colonies number (clonogenic effect and overall effect), drug + TTFields compared to drug alone",AGS cells [1]; Two-way ANOVA P<0.001,significant reduction in colonies number
same,"elevation in percent of cells that undergo apoptosis, drug + TTFields compared to drug alone",AGS cells [2],higher
same,AnnV+ 7AAD+ cell fraction,"AGS cells [2]; 25 nM, no TTFields",4.00%
same,AnnV+ 7AAD− cell fraction,"AGS cells [2]; 25 nM, no TTFields",6.55%
same,AnnV− 7AAD+ cell fraction,"AGS cells [2]; 25 nM, no TTFields",1.35%
same,AnnV− 7AAD− cell fraction,"AGS cells [2]; 25 nM, no TTFields",88.10%
same,AnnV+ 7AAD+ cell fraction,AGS cells [2]; [9],11.65%
same,AnnV+ 7AAD− cell fraction,AGS cells [2]; [9],8.40%
same,AnnV− 7AAD+ cell fraction,AGS cells [2]; [9],3.10%
same,AnnV− 7AAD− cell fraction,AGS cells [2]; [9],76.90%
same,AnnV+ 7AAD+ cell fraction,"AGS cells [2]; 50 nM, no TTFields",4.83%
same,AnnV+ 7AAD− cell fraction,"AGS cells [2]; 50 nM, no TTFields",5.08%
same,AnnV− 7AAD+ cell fraction,"AGS cells [2]; 50 nM, no TTFields",2.08%
same,AnnV− 7AAD− cell fraction,"AGS cells [2]; 50 nM, no TTFields",88.00%
same,AnnV+ 7AAD+ cell fraction,AGS cells [2]; [10],12.78%
same,AnnV+ 7AAD− cell fraction,AGS cells [2]; [10],9.78%
same,AnnV− 7AAD+ cell fraction,AGS cells [2]; [10],2.23%
same,AnnV− 7AAD− cell fraction,AGS cells [2]; [10],75.20%
same,AnnV+ 7AAD+ cell fraction,"AGS cells [2]; 100 nM, no TTFields",7.00%
same,AnnV+ 7AAD− cell fraction,"AGS cells [2]; 100 nM, no TTFields",6.45%
same,AnnV− 7AAD+ cell fraction,"AGS cells [2]; 100 nM, no TTFields",1.63%
same,AnnV− 7AAD− cell fraction,"AGS cells [2]; 100 nM, no TTFields",84.93%
same,AnnV+ 7AAD+ cell fraction,AGS cells [2]; [11],14.54%
same,AnnV+ 7AAD− cell fraction,AGS cells [2]; [11],11.10%
same,AnnV− 7AAD+ cell fraction,AGS cells [2]; [11],3.78%
same,AnnV− 7AAD− cell fraction,AGS cells [2]; [11],70.58%
same,AnnV+ 7AAD+ cell fraction,AGS cells [2]; [12],17.83%
same,AnnV+ 7AAD− cell fraction,AGS cells [2]; [12],11.40%
same,AnnV− 7AAD+ cell fraction,AGS cells [2]; [12],4.50%
same,AnnV− 7AAD− cell fraction,AGS cells [2]; [12],66.23%
same,AnnV+ 7AAD+ cell fraction,"AGS cells [2]; 400 nM, no TTFields",10.87%
same,AnnV+ 7AAD− cell fraction,"AGS cells [2]; 400 nM, no TTFields",6.70%
same,AnnV− 7AAD+ cell fraction,"AGS cells [2]; 400 nM, no TTFields",1.83%
same,AnnV− 7AAD− cell fraction,"AGS cells [2]; 400 nM, no TTFields",80.60%
same,AnnV+ 7AAD+ cell fraction,AGS cells [2]; [15],9.00%
same,AnnV+ 7AAD− cell fraction,AGS cells [2]; [15],7.65%
same,AnnV− 7AAD+ cell fraction,AGS cells [2]; [15],0.75%
same,AnnV− 7AAD− cell fraction,AGS cells [2]; [15],82.60%
same,AnnV+ 7AAD+ cell fraction,"AGS cells [2]; 200 nuM, no TTFields",7.64%
same,AnnV+ 7AAD− cell fraction,"AGS cells [2]; 200 nuM, no TTFields",7.00%
same,AnnV− 7AAD+ cell fraction,"AGS cells [2]; 200 nuM, no TTFields",1.46%
same,AnnV− 7AAD− cell fraction,"AGS cells [2]; 200 nuM, no TTFields",83.92%
same,AnnV+ 7AAD+ cell fraction,AGS cells [2]; [13],10.3%
same,AnnV+ 7AAD− cell fraction,AGS cells [2]; [13],7.2%
same,AnnV− 7AAD+ cell fraction,AGS cells [2]; [13],4.4%
same,AnnV− 7AAD− cell fraction,AGS cells [2]; [13],78.2%
same,AnnV+ 7AAD+ cell fraction,AGS cells [2]; [14],4.6%
same,AnnV+ 7AAD− cell fraction,AGS cells [2]; [14],5.1%
same,AnnV− 7AAD+ cell fraction,AGS cells [2]; [14],0.2%
same,AnnV− 7AAD− cell fraction,AGS cells [2]; [14],90.1%
same,cell count,AGS cells [3]; [8],62 % from control
same,cell count,"AGS cells [3]; 25 nM, no TTFields",88 % from control
same,cell count,AGS cells [3]; [9],43 % from control
same,cell count,"AGS cells [3]; 50 nM, no TTFields",66 % from control
same,cell count,AGS cells [3]; [10],33 % from control
same,cell count,"AGS cells [3]; 100 nM, no TTFields",52 % from control
same,cell count,AGS cells [3]; [11],21 % from control
same,cell count,"AGS cells [3]; 200 nM, no TTFields",39 % from control
same,cell count,AGS cells [3]; [12],8 % from control
same,cell count,"AGS cells [3]; 400 nM, no TTFields",11 % from control
same,cell count,AGS cells [3]; [13],46 % from control
same,cell count,AGS cells [3]; [14],78 % from control
same,additional clonogenic and overall effect over TTFields alone,KATO III cells [4],no additional effect
same,"elevation in percent of cells that undergo apoptosis, drug + TTFields compared to drug alone",KATO III cells [5],higher
same,AnnV+ 7AAD+ cell fraction,KATO III cells [5]; [16],16.12%
same,AnnV+ 7AAD− cell fraction,KATO III cells [5]; [16],16.57%
same,AnnV− 7AAD+ cell fraction,KATO III cells [5]; [16],1.31%
same,AnnV− 7AAD− cell fraction,KATO III cells [5]; [16],66.01%
same,AnnV+ 7AAD+ cell fraction,"KATO III cells [5]; 50 nM, no TTFields",6.09%
same,AnnV+ 7AAD− cell fraction,"KATO III cells [5]; 50 nM, no TTFields",11.36%
same,AnnV− 7AAD+ cell fraction,"KATO III cells [5]; 50 nM, no TTFields",1.30%
same,AnnV− 7AAD− cell fraction,"KATO III cells [5]; 50 nM, no TTFields",81.25%
same,AnnV+ 7AAD+ cell fraction,KATO III cells [5]; [17],14.83%
same,AnnV+ 7AAD− cell fraction,KATO III cells [5]; [17],19.81%
same,AnnV− 7AAD+ cell fraction,KATO III cells [5]; [17],0.72%
same,AnnV− 7AAD− cell fraction,KATO III cells [5]; [17],64.63%
same,AnnV+ 7AAD+ cell fraction,"KATO III cells [5]; 100 nM, no TTFields",6.42%
same,AnnV+ 7AAD− cell fraction,"KATO III cells [5]; 100 nM, no TTFields",10.55%
same,AnnV− 7AAD+ cell fraction,"KATO III cells [5]; 100 nM, no TTFields",1.32%
same,AnnV− 7AAD− cell fraction,"KATO III cells [5]; 100 nM, no TTFields",81.71%
same,AnnV+ 7AAD+ cell fraction,KATO III cells [5]; [18],19.97%
same,AnnV+ 7AAD− cell fraction,KATO III cells [5]; [18],22.60%
same,AnnV− 7AAD+ cell fraction,KATO III cells [5]; [18],0.86%
same,AnnV− 7AAD− cell fraction,KATO III cells [5]; [18],56.57%
same,AnnV+ 7AAD+ cell fraction,"KATO III cells [5]; 200 nM, no TTFields",8.42%
same,AnnV+ 7AAD− cell fraction,"KATO III cells [5]; 200 nM, no TTFields",11.47%
same,AnnV− 7AAD+ cell fraction,"KATO III cells [5]; 200 nM, no TTFields",1.01%
same,AnnV− 7AAD− cell fraction,"KATO III cells [5]; 200 nM, no TTFields",79.10%
same,AnnV+ 7AAD+ cell fraction,KATO III cells [5]; [19],21.45%
same,AnnV+ 7AAD− cell fraction,KATO III cells [5]; [19],25.36%
same,AnnV− 7AAD+ cell fraction,KATO III cells [5]; [19],0.65%
same,AnnV− 7AAD− cell fraction,KATO III cells [5]; [19],52.54%
same,AnnV+ 7AAD+ cell fraction,"KATO III cells [5]; 400 nM, no TTFields",11.24%
same,AnnV+ 7AAD− cell fraction,"KATO III cells [5]; 400 nM, no TTFields",12.11%
same,AnnV− 7AAD+ cell fraction,"KATO III cells [5]; 400 nM, no TTFields",1.42%
same,AnnV− 7AAD− cell fraction,"KATO III cells [5]; 400 nM, no TTFields",75.23%
same,AnnV+ 7AAD+ cell fraction,KATO III cells [5]; [20],27.60%
same,AnnV+ 7AAD− cell fraction,KATO III cells [5]; [20],15.15%
same,AnnV− 7AAD+ cell fraction,KATO III cells [5]; [20],1.32%
same,AnnV− 7AAD− cell fraction,KATO III cells [5]; [20],55.94%
same,AnnV+ 7AAD+ cell fraction,KATO III cells [5]; [14],18.07%
same,AnnV+ 7AAD− cell fraction,KATO III cells [5]; [14],10.28%
same,AnnV− 7AAD+ cell fraction,KATO III cells [5]; [14],1.12%
same,AnnV− 7AAD− cell fraction,KATO III cells [5]; [14],70.54%
same,cell count,KATO III cells [6]; [16],48 % from control
same,cell count,"KATO III cells [6]; 50 nM, no TTFields",82 % from control
same,cell count,KATO III cells [6]; [17],46 % from control
same,cell count,"KATO III cells [6]; 100 nM, no TTFields",75 % from control
same,cell count,KATO III cells [6]; [18],30 % from control
same,cell count,"KATO III cells [6]; 200 nM, no TTFields",64 % from control
same,cell count,KATO III cells [6]; [19],24 % from control
same,cell count,"KATO III cells [6]; 400 nM, no TTFields",39 % from control
same,cell count,"KATO III cells [6]; 800 nM, + TTFields 150 kHz 1.6 V/cm",21 % from control
same,cell count,"KATO III cells [6]; 800 nM, no TTFields",25 % from control
same,cell count,KATO III cells [6]; [20],51 % from control
same,cell count,KATO III cells [6]; [14],84 % from control
same,colonies count,KATO III cells [7]; [16],46 % from control
same,colonies count,"KATO III cells [7]; 50 nM, no TTFields",71 % from control
same,colonies count,KATO III cells [7]; [17],54 % from control
same,colonies count,"KATO III cells [7]; 100 nM, no TTFields",74 % from control
same,colonies count,KATO III cells [7]; [18],42 % from control
same,colonies count,"KATO III cells [7]; 200 nM, no TTFields",70 % from control
same,colonies count,KATO III cells [7]; [19],17 % from control
same,colonies count,"KATO III cells [7]; 400 nM, no TTFields",23 % from control
same,"colonies number (clonogenic effect and overall effect), drug + TTFields compared to drug alone",KATO III cells [7]; Two-way ANOVA P<0.001,significant reduction in colonies number
